The nature of data set [1]: Conversion of solid form in SGF. Type of data set: physicochemical. The text has this: (§1) Therefore, sodium salt Form J is suitable to be formulated as sustained-release oral formulation. […] Therefore, sodium salt Form J could be developed as enteric release formulations to avoid conversion in SGF and achieve higher solubility in intestinal environment for better absorption.

Data set [2] can be described thus: Stability of solid forms, stability chamber 40° C. and 75%-RH, XRPD after 1 month. Type of data set: physicochemical. The conditions noted are these: 40° C./75%-RH. How it is done:
40 mg of compound (I) in different solid forms were stored in a stability chamber with temperature and humidity controlled at 40° C. and 75%-RH, respectively. After 1 month, the samples were analyzed by XRPD to check their solid form and compared with their initial solid form.

The nature of the next data set: In vivo PK study.
Source text: as §1

Data set [3] is described as follows: Physical stability of solid forms (general statements, accelerated and long term stability testing). The conditions noted are these: conditions not stated; listed as sodium salt Form J. Type of data set: physicochemical. The source says: Developing novel forms of compound (I) with good processability or acceptable aqueous solubility is one of the objectives of current invention. Some novel solid forms enhance the developability of compound (I) fundamentally. The physical stability of drug substances is an integral part of the systematic approach to the stability evaluation of pharmaceuticals due to its potential impacts on drug chemical stability performance and safety. The greater the stability is, the longer the shelf life could be. Therefore, the accelerated and long term stability testing used in this invention could be used to predict shelf lives.

The nature of data set [4]: Apparent solubility in FaSSIF over time. Type of data set: physicochemical.
Source text: as §1

Data set [5] is described as follows: Apparent solubility study in pH buffers (50 mM), 25° C., 24 hours, HPLC. Type of data set: physicochemical. The conditions noted are these: for Solubility: 25° C., 24 hours; for Solubility / Final pH: listed as Example 15, sodium salt Form J of compound (I); for Final pH: after 24 hours. How it is done:
Apparent solubility was determined by suspending 5 mg of compound (I) in different bio-relevant media including pH buffers (50 mM). The suspensions were equilibrated at 25° C. for 24 hours. The suspensions were then filtered through a 0.22 μm PVDF filter into a 2-mL HPLC vial. The quantification of the filtrate was conducted by HPLC with reference to a standard solution.

As for `CCOC(=O)C1=C(CN2CCN3C(=O)N(CC(C)(C)C(=O)O)C[C@@H]3C2)NC(c2nccs2)=N[C@H]1c1cccc(F)c1C` [Form J, 3-[(8aS)-7-[[(4S)-5-ethoxycarbonyl-4-(3-fluoro-2-methyl-phenyl)-2-thiazol-2-yl-1,4-dihydropyrimidin-6-yl]methyl]-3-oxo-5,6,8,8a-tetrahydro-1H-imidazo[1,5-a]pyrazin-2-yl]-2,2-dimethyl-propanoic acid], the “Solid form conversion” value in data set [1] is “converted to HCl salt immediately”. For the same molecule, the “Solid form stability compared with Form D” value in data set [2] was “better solid form stability than the original Form D”. Besides, the “Physical stability (solid form by XRPD)” value in data set [2] (listed as Example 15, sodium salt Form J of compound (I)) is “no solid form change”. For the same molecule, in the data set “In vivo PK study”, the “Absorption rate to reach Cmax” value was “much slower absorption rate to reach Cmax”. Further, the “Physical / solid state stability” value in data set [3] is on record as “improved stability compared with Form D”. Further, the “Apparent solubility in FaSSIF” value in data set [4] is listed as “increased with time”. In data set [5], the “Solubility compared with other crystal forms of the parent compound (I)” value was “improved solubility compared with some of other crystal forms”. In addition, the Solubility is 1.51 mg/mL in data set [5] (pH 1 buffer); 0.016 mg/mL in data set [5] (pH 3 buffer); 0.0028 mg/mL in data set [5] (pH 5 buffer); 0.69 mg/mL in data set [5] (pH 7 buffer); greater than 10 mg/mL in data set [5] (pH 9 buffer). The “Final pH” value in data set [5] (pH 1 buffer) is listed as 1.12; in data set [5] (pH 3 buffer), 3.53; in data set [5] (pH 5 buffer), 5.22; in data set [5] (pH 7 buffer), 7.34; in data set [5] (pH 9 buffer), 8.80. The “Solubility compared with Form A” value in data set [5] (pH7 and pH9) is “higher solubility than Form A at pH7 and pH9”.

Broadly, the Solubility is the dissolved amount per volume that the medium holds.
